# Experimental data published in ChEMBL document CHEMBL5154729, “A fragment integrational approach to GPCR inhibition: Identification of a high affinity small molecule CXCR4 antagonist” (Eur J Med Chem, 2022).
# Calls of active or inactive are those of the source. The calls are words filed in the database; no cut-off is given here.
# How the values were obtained:
# [1] = target: T1, C-X-C chemokine receptor type 4 (Homo sapiens, UniProt P61073); assay: Antagonist activity at CXCR4 receptor in human SUP-T1 assessed as inhibition of SDF-1alpha-induced CXCR4 internalization at 0.1 to 10 uM and measured by flow cytometry analysis; type: functional, cell-based; details: filed as antagonist, dose 0.1-10 µM, DDE = dose-dependent effect
# T1 sequence (P61073 whole entry): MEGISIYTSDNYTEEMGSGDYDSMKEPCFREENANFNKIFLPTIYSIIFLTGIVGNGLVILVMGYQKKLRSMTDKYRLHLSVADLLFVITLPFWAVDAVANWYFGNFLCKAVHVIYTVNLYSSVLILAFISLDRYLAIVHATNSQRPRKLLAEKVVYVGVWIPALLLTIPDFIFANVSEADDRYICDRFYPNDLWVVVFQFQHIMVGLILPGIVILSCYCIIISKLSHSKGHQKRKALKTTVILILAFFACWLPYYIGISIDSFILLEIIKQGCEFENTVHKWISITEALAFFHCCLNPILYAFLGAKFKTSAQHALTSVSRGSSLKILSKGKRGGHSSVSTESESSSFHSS
# [2] = test system: SUP-T1; assay: Cytotoxicity against human SUP-T1 cells at 10 to 50 uM after 72 hrs CellTiter-96 assay; type: toxicity, cell-based; details: sup-t1, 72 h, dose 10-50 µM
# [3] = target: T1, C-X-C chemokine receptor type 4; assay: Antagonist activity at CXCR4 receptor in CHO cells expressing EGFP-CXCR4 assessed as inhibition of SDF-1alpha-induced CXCR4 internalization at 1 to 100 nM and measured by confocal microscopy; type: functional, cell-based; details: filed as antagonist, dose 1-100 nM
# [4] = test system: CCRF-CEM; assay: Cytotoxicity against human CEM-GFP cells at 0.32 to 25000 nM measured by CellTiter-Blue cell viability assay; type: toxicity, cell-based; details: 25 µM, dose 0.32-25000 nM
# [5] = target: T1, C-X-C chemokine receptor type 4; assay: Antagonist activity at CXCR4 receptor expressed in CHO cells transfected with NFAT-RE-luc2P assessed as reduction in SDF-1alpha-mediated calcium signaling pathway at 10 uM and measured by luciferase reporter gene assay; type: functional, cell-based; details: filed as antagonist
# [6] = test system: Human immunodeficiency virus 1; assay: Antiviral activity against HIV1 NL4-3 virus infected in human CEM-GFP cells assessed as reduction in CXCR4-mediated HIV-1 infection at 0.1 to 10000 nM measured by fluorescence assay; type: functional, organism-based; details: dose 0.1-10000 nM
# [7] = target: T1, C-X-C chemokine receptor type 4; assay: Antagonist activity at CXCR4 receptor in SDF-1alpha-stimulated human SUP-T1 cells measured by calcium mobilization assay; type: functional, cell-based
# [8] = test system: C-X-C chemokine receptor type 4 (Homo sapiens), P61073 [E288A]; assay: Binding affinity to CXCR4 E288A mutant (unknown origin) expressed in CHO cells at 100 nM measured by 12G5 competitive binding method; type: cell-based; details: filed as antagonist
# C-X-C chemokine receptor type 4 (Homo sapiens), P61073 [E288A], sequence (P61073 whole entry E288A): as the sequence (P61073 whole entry) above, with E288A counted along it
# [9] = test system: CHO; assay: Binding affinity to CXCR4 D262E mutant (unknown origin) expressed in CHO cells at 100 nM measured by 12G5 competitive binding method; type: cell-based; details: Homo sapiens, filed as antagonist
# [10] = test system: C-X-C chemokine receptor type 4 (Homo sapiens), P61073 [D262A]; assay: Binding affinity to CXCR4 D262A mutant (unknown origin) expressed in CHO cells at 100 nM measured by 12G5 competitive binding method; type: cell-based; details: filed as antagonist
# C-X-C chemokine receptor type 4 (Homo sapiens), P61073 [D262A], sequence (P61073 whole entry D262A): as the sequence (P61073 whole entry) above, with D262A counted along it
# [11] = target: T1, C-X-C chemokine receptor type 4; assay: Binding affinity to CXCR4 (unknown origin) expressed in CHO cells measured by 12G5 competitive binding method; type: cell-based
# [12] = test system: C-X-C chemokine receptor type 4 (Homo sapiens), P61073 [E288D]; assay: Binding affinity to CXCR4 E288D mutant (unknown origin) expressed in CHO cells at 100 nM measured by 12G5 competitive binding method; type: cell-based; details: filed as antagonist
# C-X-C chemokine receptor type 4 (Homo sapiens), P61073 [E288D], sequence (P61073 whole entry E288D): as the sequence (P61073 whole entry) above, with E288D counted along it
# [13] = target: T1, C-X-C chemokine receptor type 4; assay: Antagonist activity at CXCR4 receptor expressed in CHO cells transfected with […] assessed as reduction in SDF-1alpha-mediated RhoA activation at 10 uM and measured by luciferase reporter gene assay; type: functional, cell-based; details: filed as antagonist
# [14] = target: T1, C-X-C chemokine receptor type 4; assay: Antagonist activity at CXCR4 receptor expressed in CHO cells transfected with CRE-luc2P assessed as reduction in forskolin-stimulated SDF-1alpha-mediated inhibition of cAMP production at 10 uM and measured by luciferase reporter gene assay; type: functional, cell-based; details: filed as antagonist
# [15] = target: T1, C-X-C chemokine receptor type 4; assay: Antagonist activity at CXCR4 receptor expressed in CHO cells transfected with SRE-luc2P assessed as reduction in SDF-1alpha-mediated ERK/MAPK activation at 10 uM and measured by luciferase reporter gene assay; type: functional, cell-based; details: filed as antagonist
# [16] = target: T1, C-X-C chemokine receptor type 4; assay: Binding affinity to CXCR4 (unknown origin) expressed in CHO cells measured by Scatchard plot analysis; type: cell-based
inhibition [1],inhibition [3],Activity [5],IC50 [7] [nM],Activity [8] [%],Activity [10] [%],IC50 [11] [nM],Activity [12] [%],Activity [13],Activity [14],Activity [15],Kd [16] [nM],SMILES,Activity [2],Activity [4],Activity [6],Activity [9] [%]
Dde,,,,,,,,,,,,c1cc(CN2CCCNCCNCCCNCC2)ccc1CN1CCCNCCNCCCNCC1,,,,
Dde,Active,Active,1.6,> 90,> 40,12,> 60,Active,Active,Active,,N=C(N)NCCC[C@H](NCc1ccccn1)C(=O)NCc1ccc(CNCCCNC2CCCCC2)cc1,Non-Toxic,Non-Toxic,Active,> 60
,,,,,,,,,,,33,N/C(=N\C(=O)CCCCCNC(=S)Nc1ccc2c(c1)C(=O)OC21c2ccc(O)cc2Oc2cc(O)ccc21)NCCC[C@H](NCc1ccccn1)C(=O)NCc1ccc(CNCCCNC2CCCCC2)cc1,,,,
